From US20150335678A1, “METHOD OF ACTIVATING STEM CELLS IN AN ANIMAL AND THE USE OF CHLORINE DIOXIDE FOR PREPARING MEDICINES FOR ACTIVATING STEM CELLS IN AN ANIMAL” (priority 2012, published 2015)

Experiments:
[1] = test system: VE cadherin-positive mononuclear cells; experiment: VE cadherin-positive mononuclear cells in peripheral blood of lower limb DVT patients, flow cytometry; assay type: in vivo, human; conditions: before administration 0.44 ± 0.70, diluted solution 10 ml/body/day femoral artery puncture, 14 days
Source text: The subjects consisted of 14 male and 6 female lower limb DVT patients with the unilateral limb suffer from the illness, aged from 59 to 76 years old (average age: 67.2 years old). The purpose of the clinical test was explained to all subjects and their consent was obtained before conducting the clinical test.
The first solution was a mixed solution made of sodium chlorite with the concentration of 7.47% and sodium chloride with the concentration of 1.59% with deionized water; the second solution was made of citric acid with the concentration of 16.7% with deionized water. Same volume of solutions were taken out from different vessels with different volumes and mixed up. […]
Five ml of peripheral blood was collected from the median cubital vein of the forearm of each patient using low molecular weight heparin anticoagulant before administration (before initial administration) and on day 7 and 14 after administration, and the collected blood was immediately stored at 4° C. and measured within 6 hours after collection. […]
VE Cadherin-positive mononuclear cells were isolated by immunofluorescent stain using flow cytometry. […] Next, VE cadherin-positive mononuclear cells were isolated and counted by flow cytometry. The ratio (%) of VE cadherin-positive mononuclear cells among the mononuclear cells was calculated according to the following formula. […]

[2] = test system: localized psoriasis; experiment: Localized psoriasis patients, cure and recurrence vs cream control (Example 8); assay type: in vivo, human
Source text: The subjects consisted of 86 patients with localized psoriasis aged from 28 to 68 years old, among which 43 patients were randomly assigned to treatment group, and 43 to control group. The disease broke out continuously with more than nine months of course of disease. The purpose of the clinical test was explained to all subjects and their consent was obtained before conducting the clinical test. Treatment group: 29 male patients (74.36%), 10 female (25.64%); age (49.05±14.57); course of disease (12±9) years. Control group: 28 male patients (68.29%), 13 female patients (31.71%); age (47.05±16.25); course of disease (12±10) years.
The solution was immediately smeared over the affected region, once a day for 10 to 15 days, and then stop administration. If it relapsed, reusing it again. […] If it relapsed, reusing it again. The due time was six months.
The criteria for measuring the effect: Take PASI as reference.
A. The areas: grading from 0 to 6 for the four body parts respectively: area: 0=no rash;
B. Severity of the clinic: erythema; infiltration; scale. Grading each characteristics from 0 to 4 point; 0=no; 1=mild; 2=moderate; 3=severe; 4=extremely severe. Calculating the grades of each parts and working out the total points. The criteria of the effect (PASI decrease percentage): recovery score: ≧95%; excellent score both ≧61% and <95%; improved score both ≧20% and <60%; No effect score<20%.
The example was enumeration data and a Chi-square test was conducted to compare the cure rate and recurrence rate of the two groups.

[3] = test system: chronic and allergic rhinitis; experiment: Chronic and allergic rhinitis patients vs ephedrine nose drops (Example 9); assay type: in vivo, human
Source text: The subjects consisted of 30 patients with chronic and allergic rhinitis, and half of them were randomly assigned to treatment group and control group.
The first solution was a mixed solution made of sodium chlorite with the concentration of 7.47% and sodium chloride with the concentration of 1.59% with deionized water; the second solution was made of citric acid with the concentration of 16.7% with deionized water. The solution comprising chlorine dioxide was made by mixing up the two solutions above. To make 50 ml solution for each patient each time and put it into a bottle and stores it in the refrigerator. 2-5 ml of solution for each patient each time was taken out and put into a beaker. The patients would breathe aiming at the cup-mouth for one to two minutes, and then the solution was diluted five to hundred times with normal saline before being put into nasal spray. To spray on each side of nose for three to five times. It was conducted once a day for consecutive 5 to 10 days. Then the administration was stopped, reuse the administration method for recurrence. The course of treatment was three months. The administration for patients in control group: use the ephedrine nose drops three times a day with three drops on each side each time for consecutive seven days. Reuse the administration method for recurrence. The course of treatment was three months.
Evaluation of the effects: The effects can be divided into excellent, effective and ineffective according to symptoms and signs. 1) Excellent: subjective symptoms disappear and positive sign become normal. 2) Effective: subjective symptoms and positive sign decrease obviously. […] Total effective rate(%)=(No. of excellent cases+No. of effective cases)/total cases×100%. Recurrence rate of rhinitis after treatment means the recurrence rate six months after treatment of all the cases. Table 19 is about the treatment of rhinitis.

[4] = test system: skin and eye mucous membrane; conditions: content of chlorine dioxide 9.7˜11.4 mg/L; 48 h; cited from earlier work
[5] = test system: APTT, PT and TT (blood coagulation and fibrinolysis systems); experiment: Side effects in lower limb DVT patients: APTT, PT, TT and pain
Description: Chlorine dioxide solution was administered to the patients through the contralateral femoral artery puncture (sick side) for 14 consecutive days, a dose of 10 ml/body/day. Before injection, use 2 ml-5 ml lidocaine of 2% to perform infiltration anesthesia at puncture point.

[6] = after 6 months, 43 patients per group
[7] = follow-up average 6 months, 35 treatment, 32 control patients
[8] = 30 cases per group, three-month course

[O][Cl+][O-] [chlorine dioxide solution, chlorine dioxide]
VE Cadherin-Positive Mononuclear Cells (ratio among mononuclear cells, mean±SD) ([1]; Day 7 after administration, n=20): 1.5 ± 1.11 % | VE Cadherin-Positive Mononuclear Cells (ratio among mononuclear cells, mean±SD) ([1]; Day 14 after administration, n=15): 1.91 ± 1.65 % | No. effective patients [2, 6]: 0 (0) ^ | No. ineffective patients [2, 6]: 0 (0) | effective patients percentage [2, 6]: 0 (0) ^ % | improvement Percentage [2, 6]: 4.6% | ineffective patients percentage [2, 6]: 0 (0) % | No. Cure ([2]; after 6 months, 43 patients per group, smeared once a day 10 to 15 days, repeated on relapse, at most three treatments, test solution NaClO2 10%/NaCl 2.5% + citric acid 22% 1:1, PASI-based): 41 | Cure Percentage ([2]; after 6 months, 43 patients per group, topical once a day 10 to 15 days, repeated on relapse, P<0.01 between groups): 95.3% | No. non recurrence patients [2, 7]: 33 | non recurrence patients percentage [2, 7]: 94.3% | No. recurrence patients ([2]; follow-up average 6 months, 35 treatment, 32 control patients followed): 2 | recurrence patients percentage (recurrence rate) ([2]; follow-up average 6 months, 35 treatment, 32 control patients, P<0.01 between groups): 5.7% | Effective (No. of cases): symptoms and signs decrease obviously [3, 8]: 3 | Effective rate = (excellent + effective)/total cases [3, 8]: 97% | Ineffective (No. of cases) [3, 8]: 1 | Excellent (No. of cases): symptoms disappear, signs normal ([3]; 30 cases per group, three-month course, test: NaClO2 7.47% + citric acid 16.7%, breathed 1-2 min then nasal spray diluted 5-100 times, once a day 5 to 10 days, control three times a day seven days): 26 | No. of Recurrences ([3]; six months after treatment): 3 | Recurrence rate ([3]; six months after treatment): 10% | stimulation score to skin and eye mucous membrane [4]: 0 | duration of stabbing pain after injection without anesthetic ([5]; almost all the patients, day one after administration): 30 min | APTT, PT and TT, before vs after administration ([5]; before, day 7 and day 14 after administration, lower limb DVT patients, 10 ml/body/day femoral artery puncture): no significant differences | side effects by administration ([5]; lower limb DVT patients, 10 ml/body/day femoral artery puncture, 14 days): no occurrence of side effects
